Assay results: publication PMC7589326, “Synthesis and Pharmacological Evaluation of Fluorinated Quinoxaline‐Based κ‐Opioid Receptor (KOR) Agonists Designed for PET Studies” (Chemmedchem, 2020)
“Also recorded” adds a separate entry of the source.

Key:
[1] = In vitro biotransformation with mouse liver microsomes and NADPH (LC-MS/MS); conditions: mouse liver microsomes, NADPH, 90 min
[2] = Stability in human serum (radio-HPLC); format: in vitro ADME; conditions: 90 min, 37 °C
Method: (§1) Enzymes present in blood serum could be able to transform the radioactive PET tracer [^18F]‐2. Therefore, the blood serum stability of [^18F]‐2 was investigated before testing the tracer in vivo. [^18F]‐2 was incubated with mouse and human serum for 90 min at 37 °C.
(§2) The serum stability of radioligands [^18F]‐2 and [^18F]‐14c was evaluated by incubation in mouse or human serum at 37 °C for up to 90 min. An aliquot of formulated [^18F]‐2 or [^18F]‐14c (20 μL, ca. 6.6 MBq and ca.10 MBq, respectively) was added to a sample of mouse serum (200 μL) or human serum (200 μL), and the mixtures were incubated at 37 °C. Samples of 20 μL each were taken after periods of 10, 30, 60 and 90 min and ice‐cold DNA‐grade CH3CN (100 μL) were added. After centrifugation for ≥5 min, the supernatant was analyzed by analytical radio‐HPLC B, method B.

[3] = Distribution coefficient logD7.4, shake flask method with radioligand; format: physicochemical; conditions: n-octanol / phosphate buffered saline pH 7.4
Method: The distribution coefficient at pH 7.4 (logD7.4) was determined by a shake flask method using the radioligand [^18F]‐2. After distribution of [^18F]‐2 between n‐octanol and phosphate buffered saline (pH 7.4) layers, the radioactivity in both layers was determined and set in ratio. According to this procedure, a logD7.4 value of 1.37±0.06 was determined indicating a moderate lipophilic compound, which should be able to penetrate into the central nervous system.
The lipophilicity of radioligands [^18F]‐2 and [^18F]‐14c was assessed by determination of the water n‐octan‐1‐ol distribution coefficient (logD) following a published procedure.57 In brief, approximately 3.2 MBq of radioligand [^18F]‐2 and approximately 0.3 MBq of radiotracer [^18F]‐14c, respectively, were mixed with equal amounts (0.6 mL) of phosphate buffered saline (PBS, pH 7.4) and n‐octan‐1‐ol. The resulting biphasic system was mixed vigorously for 3 min at room temperature and subsequently, the tubes were centrifuged (≥5 min). Then 400 μL of the n‐octan‐1‐ol layer was separated and 400 μL of PBS were added. The mixture was mixed vigorously for 10 min at room temperature followed by centrifugation of the tubes for≥5 min. Two samples of 100 μL of each layer were counted in a γ‐counter (2480 Automatic Gamma Counter Wizard^2, Perkin‐Elmer). The distribution coefficient was determined by calculating the ratio cpm(n‐octan‐1‐ol)/cpm(PBS) and expressed as logD 7.4 (log(cpmn‐octanol/cpmPBS)). Three independent experiments were performed in duplicate and data were provided as mean values ±standard deviation.

[4] = Biostability and biotransformation in mice in vivo (radio-HPLC of pooled blood); set-up: species or system mouse; conditions: pooled blood of three mice, 90 min after injection
Method: In order to investigate the in vivo biotransformation of [^18F]‐2, the blood of three mice 90 min after injection of [^18F]‐2 was pooled and analyzed.
Approximately 72 MBq of [^18F]‐2 (in a volume of 100 μL) were injected into the tail vein of each of three 11‐week‐old C57/BL6 mice. The animals were sacrificed 90 min after injection. Whole blood of the three mice was pooled (∼2 mL) and centrifuged (3 min) to isolate plasma. Plasma (∼0.7 mL) was separated and mixed with ice‐cold CH3CN (1.4 mL). After further centrifugation for 5 min, the supernatant was separated and evaporated to dryness in vacuo at moderate temperatures (≤60 °C). The residue was dissolved in water for injection (20 μL) and the solution was analyzed by analytical radio‐HPLC B, method B.

[5] = In vivo biodistribution, small animal PET in C57BL/6 mice; set-up: species or system mouse; conditions: C57BL/6 mice, intravenous injection
Method: Next, the distribution of the PET tracer [^18F]‐2 in mice was investigated. For this purpose, [^18F]‐2 was injected into 15‐week‐old C57BL/6 mice. […] Already after 2 min the radioactivity was almost completely found in liver, kidneys and bladder. In the liver, the radioactivity remained almost constant over the period of 90 min (Figure 6). Besides a transient local increase in radioactivity in the submandibular and harderian glands, no significant accumulation of [^18F]‐2 in non‐excreting organs such as heart, lung and muscles as indicator for unspecific binding could be detected.
Adult C57BL/6 mice (n=2 male, 15 weeks, 28 g for [^18F]‐2; n=2, male, 10 weeks, 25 g for [^18F]‐14c) were anesthetized by isoflurane/O2 and one lateral tail vein was cannulated BY using a 27 G needle connected to 15 cm polyethylene catheter tubing. Radiotracers (∼500 kBq/g bodyweight, 15 MBq) were injected as a bolus (50 μL compound flushed with 100 μL saline) via the tail vein and subsequent PET scanning was performed.
Small Animal PET Scanning. PET experiments were carried out using a submillimeter high resolution (0.7 mm full width at half‐maximum) small animal scanner (32 module quadHIDAC, Oxford Positron Systems Ltd., Oxford, UK) with uniform spatial resolution (<1 mm) over a large cylindrical field (165 mm diameter, 280 mm axial length). List‐mode data were acquired for 90 min and reconstructed into dynamic time frames using an iterative reconstruction algorithm. Subsequently, the scanning bed was transferred to the computed tomography (CT) scanner (Inveon, Siemens Medical Solutions, U.S.), and a CT acquisition with a spatial resolution of 80 μm was performed for each mouse. Reconstructed image data sets were coregistered based on extrinsic markers attached to the multimodal scanning bed and the in‐house developed image analysis software MEDgical. Three‐dimensional volumes of interest (VOIs) were defined over the respective organs in CT data sets, transferred to the coregistered PET data, and analyzed quantitatively. Regional uptake was calculated as percentage of injected dose by dividing counts per milliliter in the VOI by total counts in the mouse multiplied by 100 (%ID/mL).

[6] = Stability in mouse serum (radio-HPLC); format: in vitro ADME; conditions: 90 min, 37 °C
Method: as §1, §2

MOG induced EAE = conditions: mouse, in vivo; cited from earlier work
KOR [7] = biological target: T1, KOR (Homo sapiens, UniProt P41145); set-up: expressed in transfected cells; host or cells: HTLA cells (stably expressing TEV-fused β-arrestin2); method as in PMID 30543421; conditions: human HTLA cells; refers to U-50,488 (100 %); cited from earlier work
Target sequence in this assay (P41145 whole entry, the tested form may be a part): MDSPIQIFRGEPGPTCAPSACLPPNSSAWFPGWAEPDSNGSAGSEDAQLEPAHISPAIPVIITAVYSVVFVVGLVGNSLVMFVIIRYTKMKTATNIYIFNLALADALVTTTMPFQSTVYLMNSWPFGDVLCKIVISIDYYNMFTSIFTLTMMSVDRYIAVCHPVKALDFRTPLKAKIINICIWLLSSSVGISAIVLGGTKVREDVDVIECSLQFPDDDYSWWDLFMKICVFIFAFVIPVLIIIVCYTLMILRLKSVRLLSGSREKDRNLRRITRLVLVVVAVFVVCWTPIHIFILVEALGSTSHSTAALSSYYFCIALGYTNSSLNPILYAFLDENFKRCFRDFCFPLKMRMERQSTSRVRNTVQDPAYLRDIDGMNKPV
Target sequence in this assay (P32121 whole entry partner, the tested form may be a part): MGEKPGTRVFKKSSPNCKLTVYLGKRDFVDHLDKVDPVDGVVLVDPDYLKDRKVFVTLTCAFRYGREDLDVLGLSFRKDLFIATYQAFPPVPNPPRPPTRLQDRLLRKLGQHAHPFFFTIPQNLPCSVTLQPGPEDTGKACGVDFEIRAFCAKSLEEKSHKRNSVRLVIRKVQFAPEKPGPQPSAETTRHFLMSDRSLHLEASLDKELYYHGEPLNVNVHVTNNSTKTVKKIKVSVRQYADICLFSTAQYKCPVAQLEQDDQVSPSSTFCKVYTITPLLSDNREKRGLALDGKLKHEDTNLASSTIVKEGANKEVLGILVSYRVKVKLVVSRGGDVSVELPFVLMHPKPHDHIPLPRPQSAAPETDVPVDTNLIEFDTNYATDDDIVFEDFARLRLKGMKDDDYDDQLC

KOR [8] = biological target: T1, KOR; set-up: expressed in transfected cells; host or cells: HEK 293T (ATCC CRL-11268); method as in PMID 30543421; conditions: human HEK 293T cells; refers to U-50,488 (100 %); cited from earlier work
Target sequence in this assay (P41145 whole entry, the tested form may be a part): as the sequence (P41145 whole entry, the tested form may be a part) above

Compound: O=C(Cc1ccc(Cl)c(Cl)c1)N1CCNC2CCCC(N3CCC(F)C3)C21 (centres unmarked) [14c‐5]
- amount of metabolite formed from 14c [1]: minor amounts

Compound: O=C(Cc1ccc(Cl)c(Cl)c1)N1CCN(Cc2cn(CC[18F])nn2)[C@H]2CCC[C@H](N3CCCC3)[C@H]21 [[^18F]‐2, 2‐(3,4‐Dichlorophenyl)‐1‐((4aR,8R,8aS)‐ and ((4aS,8S,8aR)‐ 4‐{[1‐(2‐[^18F]fluoroethyl)‐1H‐1,2,3‐triazol‐4‐yl]methyl}‐8‐ (pyrrolidin‐1‐yl)‐3,4,4 a,5,6,7,8,8 a‐octahydroquinoxalin‐ 1(2H)‐yl)ethan‐1‐one]
- stability in human serum [2]: high stability
- logD [3]: 1.37 ± 0.06
- intact PET tracer in blood [4]: 90%
- radioactivity in the bones / defluorination [5]: increased radioactivity in the bones was not observed
- enrichment of radioactivity in brain or spinal cord (PET images) ([5]; 90 min observation): do not show any enrichment of radioactivity in the brain or spinal cord
- clearance from the body ([5]; hepatic and renal pathways): very fast and efficient clearance
- stability in mouse serum [6]: high stability

Compound: O=C(Cc1ccc(Cl)c(Cl)c1)N1CCN(Cc2cn(CCF)nn2)C2CCCC(N3CCCC3)C21 (centres unmarked) [compound 2]
- protection from MS-like symptoms / disease severity in EAE (MOG induced EAE): significantly decreased diseases severity and delayed disease onset; also recorded: almost complete protection
- β-Arrestin-2 E max (KOR [7]): 86%
- cAMP E max (KOR [8]): 103%
